US20090029968A1, “QUINAZOLINE DERIVATIVES USED AS INHIBITORS OF ERBB TYROSINE KINASE” (priority 2005, published 2009)

Tests used:
[1] = biological target: T1, EGFR tyrosine kinase (Homo sapiens, UniProt P00533); test: Test (a) protein tyrosine kinase phosphorylation assay, EGFR; assay type: biochemical; settings: recombinant intracellular fragment, ATP at Km; read-out: IC50 Test (a): Inhibition of EGFR tyrosine kinase protein phosphorylation
T1 construct: Recombinant intracellular fragments of EGFR, erbB2 and erbB4; made in house; host or cells: baculovirus/Sf21 insect cells (cleared lysate used)
Protocol: (§1) a) Protein Tyrosine Kinase phosphorylation Assays
(§2) This test measures the ability of a test compound to inhibit the phosphorylation of a tyrosine containing polypeptide substrate by EGFR, erbB2 and erbB4 tyrosine kinase enzyme.
(§3) Recombinant intracellular fragments of EGFR, erbB2 and erbB4 (accession numbers X00588, X03363 and L07868 respectively) were cloned and expressed in the baculovirus/Sf21 system. […]
(§4) Constitutive kinase activity of these recombinant proteins was determined by their ability to phosphorylate a synthetic peptide (made up of a random co-polymer of Glutamic Acid, Alanine and Tyrosine in the ratio of 6:3:1). […]
(§5) The immobilised phospho-peptide product of the reaction was detected by immunological methods. […] After further washing, HRP activity in each well of the plate was measured […] using 22′-Azino-di-[3-ethylbenzthiazoline sulfonate (6)] diammonium salt crystals (ABTS™ from Roche) as a substrate.
(§6) Quantification of colour development and thus enzyme activity was achieved by the measurement of absorbance at 405 nm on a Molecular Devices ThermoMax microplate reader. Kinase inhibition for a given compound was expressed as an IC50 value. […] The range of phosphorylation was calculated from the positive (vehicle plus ATP) and negative (vehicle minus ATP) control values.

[2] = biological target: T2, erbB2 tyrosine kinase (Homo sapiens, UniProt P04626); test: Test (a) protein tyrosine kinase phosphorylation assay, erbB2; assay type: biochemical; settings: recombinant intracellular fragment, ATP at Km; read-out: IC50 Test (a): Inhibition of erbB2 tyrosine kinase protein phosphorylation
T2 construct: Recombinant intracellular fragments of EGFR, erbB2 and erbB4; made in house; host or cells: baculovirus/Sf21 insect cells (cleared lysate used)
Protocol: as §1, §2, §3, §4, §5, §6

[3] = test system: BT474C cells; test: Test (e) BT474C cell proliferation assay; assay type: cell-based; settings: Homo sapiens, 96 h, four-day MTS endpoint, read-out: IC50 Test (e): Inhibition of proliferation of BT474C cells
Excerpt: The BT-474 tumour cell line (human mammary carcinoma) was obtained from Dr Baselga (at Laboratorio Recerca Oncologica, Paseo Vall D'Hebron 119-129, Barcelona 08035, Spain). This cell line was subcloned and a certain population (hereinafter referred to as “BT474C”) was obtained.
e) BT474C Cell Proliferation Assay
BT474C cells are a sub-cloned population of in vivo competent cells, as discussed above.
The BT474C assay is a MTS (3-(4,5-dimethylthiazol-2-yl)-5-(3-carboxymethoxyphenyl)-2-(4-sulfophenyl)-2H-tetrazolium, inner salt—Promega G1111) endpoint-based cell proliferation assay, which measures the ability of a test compound to inhibit the proliferation of cells over a four-day period. […] Cell density is measured using a haemocytometer and viability is calculated using Trypan Blue solution before being further diluted in Assay Medium and seeded at a density of 1×10^4 cells per well (in 100 ul) into clear bottomed 96 well plates (Costar 3598). […] The plate is read at 490 nm on a spectrophotometer.
Assay plates are left at 37° C. for 4 days and then treated with MTS solution (as above), which is converted to a soluble formazan product by active cells. After incubating the plates for 2 hours the reaction is stopped by the addition of 10% SDS (Sodium dodecyl sulphate) and the plates are read at 490 nm on a spectrophotometer giving absorbance values relative to the concentration of converted dye. […]

T1 sequence (P00533 669-1210 limits assumed): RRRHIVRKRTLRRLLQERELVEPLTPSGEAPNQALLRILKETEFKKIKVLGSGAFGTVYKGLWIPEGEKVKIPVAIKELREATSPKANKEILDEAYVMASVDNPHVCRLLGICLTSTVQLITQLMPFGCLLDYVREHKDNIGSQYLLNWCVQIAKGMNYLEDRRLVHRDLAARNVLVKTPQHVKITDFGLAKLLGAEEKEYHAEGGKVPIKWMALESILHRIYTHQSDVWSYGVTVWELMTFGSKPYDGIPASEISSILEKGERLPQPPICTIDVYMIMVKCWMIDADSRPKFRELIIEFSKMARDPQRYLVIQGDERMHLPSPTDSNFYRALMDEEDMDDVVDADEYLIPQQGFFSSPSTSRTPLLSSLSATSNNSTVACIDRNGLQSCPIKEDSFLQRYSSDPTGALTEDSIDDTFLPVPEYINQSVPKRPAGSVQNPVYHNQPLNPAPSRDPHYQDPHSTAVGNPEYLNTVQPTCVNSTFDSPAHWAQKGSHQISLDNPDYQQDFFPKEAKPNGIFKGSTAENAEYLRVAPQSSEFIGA
T2 sequence (P04626 676-1255 limits assumed): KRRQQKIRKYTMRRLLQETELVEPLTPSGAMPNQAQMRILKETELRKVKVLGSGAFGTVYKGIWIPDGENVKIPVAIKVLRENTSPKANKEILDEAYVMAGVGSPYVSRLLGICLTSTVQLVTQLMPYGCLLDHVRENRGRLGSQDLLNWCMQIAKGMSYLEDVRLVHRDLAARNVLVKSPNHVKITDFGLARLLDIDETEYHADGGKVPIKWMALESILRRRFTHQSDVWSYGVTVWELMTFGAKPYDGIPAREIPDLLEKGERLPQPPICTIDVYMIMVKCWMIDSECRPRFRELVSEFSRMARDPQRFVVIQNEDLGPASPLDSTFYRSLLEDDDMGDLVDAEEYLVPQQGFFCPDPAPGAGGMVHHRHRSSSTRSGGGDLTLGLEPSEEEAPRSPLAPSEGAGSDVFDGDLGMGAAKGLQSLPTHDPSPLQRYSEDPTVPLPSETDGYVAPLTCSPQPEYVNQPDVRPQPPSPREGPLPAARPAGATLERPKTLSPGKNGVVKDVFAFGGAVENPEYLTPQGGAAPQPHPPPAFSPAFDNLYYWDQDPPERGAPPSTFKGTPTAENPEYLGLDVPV

IC50 [1] [nM]	IC50 [2] [nM]	IC50 [3] [nM]	Structure (SMILES)
333	15	179	C[C@@H](Oc1cccc2ncnc(Nc3ccc(C(=O)N4CCCCCC4)c(Cl)c3)c12)C(=O)N(C)CCO [Example 1, (2R)-2-[(4-{[4-(azepan-1-ylcarbonyl)-3-chlorophenyl]amino}quinazolin-5-yl)oxy]-N-(2-hydroxyethyl)-N-methylpropanamide]
869	22	857	C[C@@H](Oc1cccc2ncnc(Nc3ccc(C(=O)N4CCCCC4)c(Cl)c3)c12)C(=O)N(C)CCO [Example 2, (2R)-2-[(4-{[3-chloro-4-(piperidin-1-ylcarbonyl)phenyl]amino}quinazolin-5-yl)oxy]-N-(2-hydroxyethyl)-N-methylpropanamide]
